Measured values taken from patent US20210121527A1, “METHODS OF TREATING MINIMAL RESIDUAL CANCER” (ICAHN SCHOOL OF MEDICINE AT MOUNT SINAI, priority 2018, published 2021).

Experiments:
[1] = tested on: MMTV-HER2 mammary glands; test: Mammary gland whole mount and histology of early lesions in MMTV-HER2 mice; type: in vivo, mouse; settings: 50 mpk, two weeks
Protocol: (§1) Mice, tumor growth, and tissue processing: The FVB/N-Tg (MMTVneu) mouse strain was obtained from Jackson Laboratories (Sacramento, Calif.). […] Before being used in any experiment, females underwent one round of pregnancy and at least two weeks of no lactation after weaning. Females between 24-32 weeks of age were injected intraperitoneally with vehicle (90% corn oil, 10% ethanol) or LY4 (50 mpk) daily, for two weeks. For the combination treatment, females 24-32 weeks of age were treated daily by oral gavage with Abemaciclib (50 mpk) for 4 weeks before starting the treatment described earlier with LY4. Tumor volumes were measured using the formula (Dxd^2)/2, where D is the longest and d is the shortest diameter. For CTC count, animals were anesthetized and whole blood was extracted by cardiac puncture. Mammary glands, lungs, and tumors were collected and fixed in 10% buffered formalin overnight before paraffin embedding. The bone marrow from the two lower limbs was flushed with a 26 G needle and further processed by Ficoll density gradient centrifugation. For CTC as well as for DTC detection in bone marrow, tissues were depleted of mature hematopoietic cells by anti-mouse antibody-labeled magnetic bead separation (Miltenyi Biotec, San Diego, Calif.) before fixation in formalin for 20 minutes at 4° C.
Mammary gland whole mount staining. Mammary glands fixed in 10% buffered formalin were incubated in Carmine Alum stain (Carmine 0.2%, Aluminum potassium sulfate 0.5%) (Sigma, St. Louis, Mo.) for 2 days. Then, they were dehydrated and transferred to methyl salicylate solution before imaging using a stereomicroscope.
The scoring for P-HER2 levels is explained in FIG. 10A. For the scoring of CK8/18 and SMA in mammary gland ducts, 20 low magnification fields were evaluated per animal for the expression of CK8/18 as negative (0), low (1), or high (2) and the same for SMA and the sum of the two scores was considered as the final score (from 0 to 4).

[2] = tested on: HER2^+ metastases and DCCs; test: Sequential Abemaciclib then LY4 treatment of MMTV-HER2 mice; type: in vivo, mouse; settings: Abemaciclib 50 mpk 4 weeks; LY4 50 mpk
Protocol: as §1

[3] = tested on: HER2^+ metastases and DCCs; test: Metastasis, CTC and DCC quantification in MMTV-HER2 mice; type: in vivo, mouse; settings: 50 mpk i.p. daily, two weeks
Protocol: as §1
IHC and IF: IHC and IF from paraffin-embedded sections was performed as previously described (Avivar-Valderas et al., “Regulation of Autophagy during ECM Detachment is Linked to a Selective Inhibition of mTORC1 by PERK,” Oncogene 32(41):4932-40 (2013), which is hereby incorporated by reference in its entirety). Briefly, slides were dewaxed and serially rehydrated. Heat-induced antigen retrieval was performed in either citrate buffer (10 mM, pH 6), EDTA buffer (1 mM, pH 8), or Tris/EDTA (pH9). Slides were further permeabilized in 0.1% Triton™-X100, blocked and incubated with primary antibody overnight at 4° C. at 1:50-1:200 dilution. For IHC, an additional step of endogenous peroxidase and avidin/biotin quenching was performed before primary antibody incubation. […] Next, slides were incubated in secondary antibodies (Life Technologies, Norwalk, Conn.) and mounted. For IHC, sections were processed using VectaStain ABC Elite kit (Vector Laboratories, Bulingame, Calif.) and DAB Substrate kit for peroxidase labelling (Vector Laboratories) and mounted in VectaMount medium (Vector laboratories). For IF, sections were mounted in ProLong Gold Antifade aqueous medium (Thermo Fisher, Waltham, Mass.).
In the case of immunocytofluorescence, cytospins of fixed cells (100,000-200,000 cells/cytospin were prepared by cyto-centrifugation at 500 rpm for 3 minutes on poly-prep slides, and the staining protocol was performed as explained below from the permeabilization onward. For the staining of 3D cultures, acini were fixed in 4% PFA for 20 minutes at 4° C., permeabilized with 0.5% Triton™-X100 in PBS for 20 minutes at room temperature, washed in PBS-glycine, and then blocked with 10% normal goat serum for 1 hour at 37° C., before performing immunofluorescence staining.

[4] = tested on: Braf-mutant melanoma WM35 cells; test: WM35 melanoma cell viability in 2D and 3D culture, GADD34 western blot; type: cell-based; settings: after persistent treatment with Abemaciclib
Protocol: FIGS. 12A-12G show proposed mono or combination therapies that include the use of LY4 and experiments showing that the treatment of melanoma cells with the CDK4/6 inhibitor Abemaciclib in combination with LY4 differentially affects in vitro cell viability in 2D and 3D culture. FIG. 12A is a schematic illustration of the rationale for the combination of Abemaciclib and LY4. FIG. 12B is a bar graph showing the results of an in vitro treatment of Braf-mutant melanoma cells (WM35) with 0 nM, 10 nM, or 50 nM Abemaciclib for 1 week followed by 48 hour treatment with 2 μM LY4. FIG. 12C includes images of cells stained with DAPI following pre-treatment with Abemaciclib for 1 week, followed by treatment with 2 μM LY4. 5,000 cells were seeded on matrigel. In FIGS. 12D-12E, WM35 melanoma cells were pre-treated with Abemaciclib for 5 weeks, followed by treatment with LY4 in complete media and Abemaciclib. Cells were stained with Trypan blue to identify viable cells. FIG. 12D is a graph showing Abemaciclib sensitive cells. FIG. 12E is a graph showing Abemaciclib-resistant cells. FIG. 12F show images of cells stained with DAPI following pre-treatment with Abemaciclib for 5 weeks and co-treatment with 2 μM LY4 and Abemaciclib. 1,000 cells were seeded on matrigel. […]

In the case of `Cc1cc(NC(=O)[C@H](O)c2cc(F)cc(F)c2)ccc1-c1cnc(N)c(C(=O)NC(C)C)c1` [LY4, 2-amino-5-[4-[[(2R)-2-(3,5-difluorophenyl)-2-hydroxy-acetyl]amino]-2-methyl-phenyl]-N-isopropyl-pyridine-3-carboxamide], the “cytokeratin 8/18 expression in the luminal layer of mammary ducts” value [1] is reported as “increased expression of cytokeratin 8/18 in the luminal layer”, the “number of occluded hyperplasias and DCIS-like lesions” value [1] is reported as “reduced to less than half of that in vehicle-treated animals” and the “hollow lumen mammary gland ducts, share of structures” value ([1]; around 20% in control females) is reported as “more than 60%”. The “GADD34 in primary tumor sections” value [2] was “eliminated the expression of GADD34”, the “HER2^+ circulating tumor cells in blood” value [3] was “no significant difference between vehicle and LY4-treated animals” and the area of macro-metastases [3] was “without affecting the area of these metastases”. The “number and incidence of lung macro-metastases (>100 cells)” value [3] was “reduced the number and the incidence of macro-metastases”, the “number of DCCs in bone marrow” value [3] was “significantly decreased the number of DCCs found in bone marrow” and the “number of P-Rb negative single DCCs in lung sections” value [3] was “strongly reduced the number of non-proliferating (P-Rb negative) single DCCs”. For the same molecule, the “number of P-Rb positive solitary DTCs in lung” value [3] was “without affecting the number of P-Rb positive solitary DTCs”, the “number of lung micro-metastases (2-100 cells)” value [3] was “significant decrease in the number of micro-metastases” and the “viability of Abemaciclib resistant WM35 cells, 3D” value [4] was “additive effect on decreasing viability in 3D cell culture”.
